Data on one substance can be found in patent US20090227533A1, “miR-34 Regulated Genes and Pathways as Targets for Therapeutic Intervention” (priority 2007, published 2009).

In this series the test system is H460 non-small cell lung cancer xenografts. The series can be described thus: Tumor growth of human lung cancer xenografts, intratumoral injection. In kind it is in vivo, NOD/SCID mice. An excerpt: The inventors assessed the growth-inhibitory activity of hsa-miR-34a in human lung cancer xenografts grown in immunodeficient mice. Each 3×10^6 human H460 non-small cell lung cancer cells were mixed with BD Matrigel™, (BD Biosciences; San Jose, Calif., USA; cat. no. 356237) in a 1:1 ratio and subcutaneously injected into the lower back of 23 NOD/SCID mice (Charles River Laboratories, Inc.; Wilmington, Mass., USA). Once animals developed palpable tumors (day 11 post xenograft implantation), a group of six animals received intratumoral injections of each 6.25 μg hsa-miR-34a (Dharmacon, Lafayette, Colo.) formulated with the lipid-based siPORT™ amine delivery agent (Ambion, Austin, Tex.; cat. no. AM4502) on days 11, 14, and 17. A control group of six animals received intratumoral injections of each 6.25 μg negative control miRNA (NC; Dharmacon, Lafayette, Colo.), following the same injection schedule that was used for hsa-miR-34a. Given an average mouse weight of 20 g, this dose equals 0.3125 mg/kg. […] Caliper measurements were taken every 1-2 days, and tumor volumes were calculated using the formula, Volume=length×width×width/2, in which the length is greater than the width. Average tumor volumes, standard deviations and p-values were calculated and plotted over time (FIG. 4).
For orientation: Xenograft models place foreign cells or tissue in a host animal.

For the setting “day 19, 6.25 μg intratumoral in siPORT amine on days 11, 14, 17, n=6”, “hsa-miR-34a: synthetic miRNA; mature sequence UGGCAGUGUCUUAGCUGGUUGUU (MIMAT0000255; SEQ ID NO:1) (synthetic miRNA, chemistry not given here)” yielded an average tumor volume of 196 mm^3. Moreover, the “growth of established H460 lung tumors” value (three intratumoral doses) was “robustly inhibited growth”.
